{
  "source": "patent US5587442A",
  "about": "“Polyglycomers” (priority 1994, dated 1996)",
  "key": {"L-selectin": {"biological_target": "L-selectin", "assay": "ELISA: inhibition of L-selectin-IgG binding to immobilized GlyCAM-1", "protocol": "(§1) The affinity of compounds 8, 9 and 10 for each selectin were tested in an ELISA assay that compares their ability to inhibit binding of the selectins to immobilized GlyCAM-1. Because all of the selectins bind to GlyCAM-1 (FIG. 4) this assay provides insight into the relative affinities and specificities of the identified GlyCAM-1 component for each selectin.\n(§2) The ELISAs were executed by the following protocol: An antibody to GlyCAM-1 was immobilized in a microtiter well. GlyCAM-1 was added. Selectin-IgG chimeras, which were biotinylated, were added to streptavidin-alkaline phosphatase conjugate. The binding of the selectin-IgGbiotin .cndot.strepavidin-alkaline phosphatase to GlyCAM-1 was monitored by UV. Para-nitrophenolate is produced from alkaline phosphatase catalyzed hydrolysis of paranitrophenolphosphate (Qed). The inhibitory effects of saccharides 8-10 on selectin-IgG binding to immobilized GlyCAM-1 were measured by this method."}, "P-selectin": {"test_system": "P-selectin", "assay": "ELISA: inhibition of P-selectin-IgG binding to immobilized GlyCAM-1", "conditions": "compared among 8, 9, 10", "protocol": "as §1, §2"}, "E-selectin": {"test_system": "E-selectin", "assay": "ELISA: inhibition of E-selectin-IgG binding to immobilized GlyCAM-1", "conditions": "compared among 8, 9, 10", "protocol": "as §1, §2"}, "Con A": {"test_system": "Con A", "conditions": "cited from earlier work"}, "concanavalin A (Con A)": {"biological_target": "T1, concanavalin A (Con A) (Canavalia ensiformis, UniProt P02866)", "T1 construct": "purchased Calbiochem", "assay": "Inhibition of Con A induced erythrocyte agglutination (hemagglutination inhibition assay)", "assay_type": "cell-based", "protocol": "To assess the activity of our polymers, we compared the ability of the polymer to inhibit erythrocyte agglutination by Con A with that of several controls including the monovalent carbohydrate derivative methyl-α-D-glucopyranoside and the divalent-glucose substituted 7-oxanorbornene 3.\nThe agglutination inhibition assays were performed according to standard protocols. (Osawa, et al., Methods Enzymol. 28:323-327, 1972.) The assay was as follows: Pure lyophilized Con A was dissolved in HEPES buffer with 100 mM CaCl2, pH 8.0, and dialyzed into phosphate buffered saline (PBS, 25 mM sodium phosphate, 0.15M NaCl), pH 7.2, for the assay. Protein solution concentration was estimated from UV absorbance measurements at 280 nm.\nRabbit red blood cells were stored as a 10% suspension in Alsever's solution and washed 3× with PBS before the assay. For the assay, the cells were pelleted and resuspended in PBS with 0.5% bovine serum albumin.\nPolymeric inhibitors were purified by precipitation or by gel filtration. The inhibition results obtained for compounds purified by either method were consistent. The minimum concentration of inhibitor required to inhibit four hemagglutinating doses of Con A was determined. After preincubation with the inhibitor, a 2% suspension of erythrocytes was added. The samples were examined for agglutination after 1 hour at room temperature.\nSubstrates were incubated with four agglutinating doses of Con A, prior to the addition of rabbit erythrocytes. The concentration of glucose moieties in solution required for inhibition was determined for each substrate within a two-fold dilution."}, "[1]": {"conditions": "Table 2, four agglutinating doses of Con A, rabbit erythrocytes, 1 hour at room temperature, pH 7.2, within a two-fold dilution"}},
  "data": [
    {"compound": "CCCO[C@@H]1O[C@H](CO)[C@@H](O[C@@H]2O[C@@H](C)[C@@H](O)[C@@H](O)[C@@H]2O)[C@H](O[C@@H]2O[C@H](COS(=O)(=O)O)[C@H](O)[C@H](OS(=O)(=O)O)[C@H]2O)[C@H]1O", "note": "[Compound 10]", "values": [
      {"measurement": "IC50 for preventing L-selectin binding (in words)", "setting": "L-selectin", "value": "in the mmolar range"},
      {"measurement": "relative binding to L-selectin (in words)", "setting": "L-selectin; compared among 8, 9, 10", "value": "bound no more tightly to L-selectin than the 3- and 6-sulfo analogs 8 and 9"},
      {"measurement": "relative effectiveness at blocking P-selectin binding (in words)", "setting": "P-selectin", "value": "the most active"}
    ]},
    {"compound": "CCCO[C@@H]1O[C@H](CO)[C@@H](O[C@@H]2O[C@@H](C)[C@@H](O)[C@@H](O)[C@@H]2O)[C@H](O[C@@H]2O[C@H](CO)[C@H](O)[C@H](OS(=O)(=O)O)[C@H]2O)[C@H]1O", "note": "[Compound 8]", "values": [
      {"measurement": "IC50 for preventing L-selectin binding (in words)", "setting": "L-selectin", "value": "in the mmolar range"},
      {"measurement": "relative effectiveness in binding to E-selectin (in words)", "setting": "E-selectin", "value": "considerably more effective than the 6-sulfate 9 or the 3,6-disulfate 10"},
      {"measurement": "relative effectiveness at blocking P-selectin binding (in words)", "setting": "P-selectin", "value": "the worst at blocking binding"}
    ]},
    {"compound": "CCCO[C@@H]1O[C@H](CO)[C@@H](O[C@@H]2O[C@@H](C)[C@@H](O)[C@@H](O)[C@@H]2O)[C@H](O[C@@H]2O[C@H](COS(=O)(=O)O)[C@H](O)[C@H](O)[C@H]2O)[C@H]1O", "note": "[Compound 9]", "values": [
      {"measurement": "IC50 for preventing L-selectin binding (in words)", "setting": "L-selectin", "value": "in the mmolar range"},
      {"measurement": "relative effectiveness at blocking P-selectin binding (in words)", "setting": "P-selectin", "value": "slightly better"}
    ]},
    {"compound": "fucose", "values": [
      {"measurement": "binding of fucose to Con A (in words)", "setting": "Con A; Goldstein 1976", "value": "does not bind"}
    ]},
    {"compound": "O=C(OCCC1OC(CO)C(O)C(O)C1O)C1C2C=CC(O2)C1C(=O)OCCC1OC(CO)C(O)C(O)C1O", "note": "(centres unmarked) [7-oxanorbornene 3]", "values": [
      {"measurement": "Inhibiting dose compared with methyl-α-D-glucopyranoside (in words)", "setting": "concanavalin A (Con A)", "value": "comparable"},
      {"measurement": "Inhibiting Dose [carbohydrate residues]", "setting": "concanavalin A (Con A); [1]", "value": 0.025, "unit": "M"}
    ]},
    {"compound": "mannose", "values": [
      {"measurement": "binding to Con A (in words), calorimetric data", "setting": "Con A; compared with glucose", "value": "slightly higher affinity"}
    ]},
    {"compound": "CO[C@H]1O[C@H](CO)[C@@H](O)[C@H](O)[C@@H]1O", "note": "[methyl-α-D-mannopyranoside, reference compound]", "values": [
      {"measurement": "Inhibiting Dose [carbohydrate residues]", "setting": "concanavalin A (Con A); Table 3, hemagglutination inhibition assay, mono- and multivalent carbohydrate derivatives", "value": 0.05, "unit": "M"}
    ]},
    {"compound": "CO[C@H]1O[C@H](CO)[C@@H](O)[C@H](O)[C@H]1O", "note": "[methyl-α-D-glucopyranoside, reference compound]", "values": [
      {"measurement": "Inhibiting Dose [carbohydrate residues]", "setting": "concanavalin A (Con A); [1]", "value": 0.05, "unit": "M"}
    ]}
  ]
}
